Consider seven compounds from PubChem BioAssay (NCI).

Some test systems named below: 786-0 renal; A498 renal; BT-549 breast; EKVX NSCLC; HCT-15 colon; NCI-H23 lung; NCI-H460 lung; OVCAR-8 ovarian; SF-268 CNS; U251 CNS.
Holding throughout (assay): NCI-60 cell line screen, 48 h

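Values below derive from 48-hour exposures of cells grown in 96-well plates, with endpoints linearly interpolated between the two concentrations bracketing the appropriate inhibition level. Abbreviation: GI50, concentration required for 50% inhibition of growth. TGI is the concentration that stops growth completely.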 A value given as a limit tells only on which side of the number the result lay.

For `CN(C)Cc1cccc(CN(C)C)[c]1[Sn]([Br])([c]1ccccc1)[c]1ccccc1`, the GI50 is 14.7 µM with 786-0 renal; 21.7 µM in the experiment with A498 renal; 1.83 µM with BT-549 breast; 15.2 µM with EKVX NSCLC; 14.5 µM with HCT-15 colon; 13.5 µM with NCI-H23 lung. Further, the GI50 is 13.4 µM in the experiment on NCI-H460 lung, 12.4 µM in the experiment with OVCAR-8 ovarian, 3.77 µM in the experiment on SF-268 CNS and 3.71 µM in the experiment with U251 CNS. In addition, the TGI in the experiment with 786-0 renal came out at 29 µM; with A498 renal, 47.6 µM; in the experiment with BT-549 breast, 7.94 µM; in the experiment with EKVX NSCLC, 54.1 µM; in the experiment on HCT-15 colon it was 29.4 µM; in the experiment with NCI-H23 lung, 46.3 µM. Moreover, the TGI with NCI-H460 lung was found to be 65.9 µM; in the experiment with OVCAR-8 ovarian, 26.2 µM; in the experiment with SF-268 CNS, 17.5 µM; in the experiment on U251 CNS it was 15.5 µM.
Turning to `C=C1SC(=Nc2ccccc2Cl)N(C(=O)c2sc3ccccc3c2Cl)C1(C)C`, the GI50 in the experiment with 786-0 renal is 25.4 µM; in the experiment on A498 renal it was 4.04 µM; in the experiment on BT-549 breast, 10 µM; with EKVX NSCLC, 2.38 µM; with HCT-15 colon it was 4.94 µM; with NCI-H23 lung, 4.41 µM. In addition, the GI50 was 4.14 µM in the experiment on NCI-H460 lung, 5.08 µM in the experiment with OVCAR-8 ovarian, 12.9 µM in the experiment with SF-268 CNS and 4.12 µM with U251 CNS. The TGI is more than 81.9 µM with 786-0 renal; more than 57.5 µM in the experiment on A498 renal; 49.2 µM with BT-549 breast; 18.2 µM in the experiment with EKVX NSCLC; more than 57.5 µM with HCT-15 colon; more than 100 µM in the experiment with NCI-H23 lung. Further, the TGI in the experiment with NCI-H460 lung is more than 57.1 µM; in the experiment on OVCAR-8 ovarian it was more than 100 µM; in the experiment with SF-268 CNS, more than 100 µM; in the experiment with U251 CNS it was more than 100 µM.
With `O=c1ccccc(-c2ccc(-c3ccco3)cc2)c1O`, the GI50 in the experiment on 786-0 renal was 0.834 µM; in the experiment with A498 renal, 3.46 µM; in the experiment with BT-549 breast it was 1.65 µM; with EKVX NSCLC, 0.406 µM; in the experiment on HCT-15 colon, 0.373 µM; in the experiment with NCI-H23 lung it was 1.22 µM. Besides, the GI50 in the experiment on NCI-H460 lung was 0.408 µM; with OVCAR-8 ovarian, 0.507 µM; with SF-268 CNS, 0.761 µM; with U251 CNS, 0.87 µM. For the same compound, the TGI was determined as 14.7 µM in the experiment on 786-0 renal; 25.9 µM with A498 renal; 28 µM in the experiment with BT-549 breast; 7.9 µM in the experiment with EKVX NSCLC; 41.2 µM in the experiment with HCT-15 colon; 15 µM with NCI-H23 lung. The TGI in the experiment on NCI-H460 lung is 10.8 µM; in the experiment on OVCAR-8 ovarian, 29 µM; with SF-268 CNS, more than 100 µM; in the experiment on U251 CNS, 12.7 µM.
As to `N#C/C(=C/C=C/c1ccccc1)S(=O)c1ccccc1` (stereo not drawn), the GI50 is 0.322 µM with 786-0 renal; 1.61 µM in the experiment on A498 renal; 0.712 µM in the experiment with BT-549 breast; 0.899 µM in the experiment on EKVX NSCLC; 0.211 µM in the experiment with HCT-15 colon; 0.461 µM in the experiment with NCI-H23 lung. Further, the GI50 is 0.506 µM in the experiment on NCI-H460 lung, 0.338 µM with OVCAR-8 ovarian, 0.392 µM with SF-268 CNS and 0.483 µM with U251 CNS. Besides, the TGI was found to be 1.36 µM with 786-0 renal; 3.13 µM in the experiment on A498 renal; 2.35 µM in the experiment with BT-549 breast; 2.46 µM in the experiment with EKVX NSCLC; 0.638 µM in the experiment on HCT-15 colon; 2.31 µM in the experiment on NCI-H23 lung. Further, the TGI was 2.92 µM in the experiment on NCI-H460 lung, 1.73 µM with OVCAR-8 ovarian, 1.94 µM with SF-268 CNS and 1.7 µM in the experiment with U251 CNS.
For `COc1ccccc1N1CCN(C(=O)c2ccc(NS(=O)(=O)c3cccc4cccnc34)cc2)CC1`, the GI50 in the experiment with 786-0 renal was more than 61.7 µM; in the experiment with A498 renal, more than 47.6 µM; in the experiment with BT-549 breast, more than 76.5 µM; in the experiment on EKVX NSCLC, more than 100 µM; with HCT-15 colon, more than 100 µM; in the experiment with NCI-H23 lung, more than 67.2 µM. Also, the GI50 with NCI-H460 lung is more than 100 µM; in the experiment on OVCAR-8 ovarian, more than 43.5 µM; in the experiment on SF-268 CNS, more than 48.3 µM; in the experiment with U251 CNS it was 78.2 µM. Moreover, the TGI in the experiment on 786-0 renal, in the experiment on A498 renal, with BT-549 breast, in the experiment on EKVX NSCLC, in the experiment on HCT-15 colon and in the experiment on NCI-H23 lung was more than 100 µM in each case. Further, the TGI with NCI-H460 lung, with OVCAR-8 ovarian, in the experiment with SF-268 CNS and with U251 CNS was more than 100 µM throughout.
As to `CC(C)(C)N1CC(OC(N)=O)C1`, the GI50 in the experiment on 786-0 renal, with A498 renal, with BT-549 breast, with EKVX NSCLC, in the experiment on HCT-15 colon and with NCI-H23 lung was more than 100 µM in each case. Also, the GI50 with NCI-H460 lung, in the experiment on OVCAR-8 ovarian, in the experiment with SF-268 CNS and in the experiment with U251 CNS was more than 100 µM throughout. Besides, the TGI with 786-0 renal, in the experiment on A498 renal, with BT-549 breast, in the experiment on EKVX NSCLC, with HCT-15 colon and with NCI-H23 lung was more than 100 µM each time. The TGI with NCI-H460 lung, in the experiment with OVCAR-8 ovarian, with SF-268 CNS and in the experiment with U251 CNS was more than 100 µM throughout.
Take `O=C1c2cccc3cc([N+](=O)[O-])cc(c23)C(=O)N1CCN1CCCC1`: the GI50 in the experiment with 786-0 renal is 0.28 µM; with A498 renal, 0.319 µM; with BT-549 breast, 1.56 µM; with EKVX NSCLC, 1.47 µM; in the experiment on HCT-15 colon it was 0.334 µM; in the experiment with NCI-H23 lung it was 0.466 µM. Also, the GI50 is 0.161 µM in the experiment with NCI-H460 lung, 0.566 µM with OVCAR-8 ovarian, 0.601 µM with SF-268 CNS and 0.315 µM in the experiment on U251 CNS. In addition, the TGI in the experiment with 786-0 renal was determined as 1.2 µM; with A498 renal, 1.65 µM; in the experiment with BT-549 breast, 7.55 µM; with EKVX NSCLC, 5.7 µM; in the experiment on NCI-H23 lung, 4.3 µM; with NCI-H460 lung, 0.902 µM. In addition, the TGI is 4.38 µM in the experiment on OVCAR-8 ovarian and 4.27 µM in the experiment with SF-268 CNS.
